Usually cell viability stands for a read-out of living cells in per cent, often relative to untreated cells. For orientation: NOAEL means the highest tested level that showed no adverse finding. Usually pEC50 stands for −log10 of the EC50, conventionally taken in molar units. By EC90 is commonly meant the point of the concentration-response curve where the effect stands at 90%.

One data set deals with Ebola. Conditions: mouse, in vivo; cited from earlier work.
A further data set relates to Vero E6 cells. The settings on record: African green monkey.
For data set [1] the following is noted: human.
Data set [2] relates to ZIKV PLCal_ZV. It counts as cell-based.
The conditions of data set [3]: in vivo.
Data set [4] relates to ZIKV nonstructural protein 1 (NS1). It counts as cell-based.
For the next data set, the system named is ZIKV PRVABC59 isolate. The settings on record: mouse, in vivo.
The next data set is described as follows: in vivo. Conditions: male, C57BL/6, mouse.
Data set [5] relates to ZIKV PLCal_ZV. The experiment in a line: microbe, parasite or virus in culture. It counts as cell-based. The settings on record: Zika virus, Vero.

Each structure is given as a SMILES string. pEC50: −log10 of the molar value. Where only a bound is given, the exact number is not on record here.

On to `CN(C)CCOc1ccc(/C(=C(/CCCl)c2ccccc2)c2ccccc2)cc1` [toremifene], for which the protection of mice with Ebola is recorded as 50%.
Turning to `CCC(CC)COC(=O)[C@H](C)N[P@](=O)(OC[C@H]1O[C@@](C#N)(c2ccc3c(N)ncnn23)[C@H](O)[C@@H]1O)Oc1ccccc1` [GS-5734], in the data set on Ebola, the protection in mice is given as 100%.
Take `CCN(CC)CCOc1ccc(C(=C(Cl)c2ccccc2)c2ccccc2)cc1` [clomiphene]: the protection of mice with Ebola was 90%.
`O=c1c(O[C@@H]2O[C@H](CO)[C@@H](O)[C@H](O)[C@H]2O)c(-c2ccc(O)c(O)c2)oc2cc(O)cc(O)c12` [Q3G, Quercetin-3-β-O-D-glucoside]: the cell viability with Vero E6 cells was found to be 100%. For the same compound, in data set [1], the “calculated maximum recommended starting dose (MRSD)” value is recorded as 0.813 mg/kg and the “daily dose to start clinical trials” value amounted to 56.91 mg. The “concentration at which complete inhibition of cytopathic effects (CPE) was observed” value with ZIKV PLCal_ZV [2] turned out to be 6.9 µM. Besides, the “time within which all mice died” value in [3] (male, C57BL/6, mouse, ip, 400 mg/kg) is listed as not above 2 days. Moreover, the “survival and signs of toxicity” value in [3] (mouse) was “without signs of toxicity”. Also, in data set [3] (mouse, ip, 200 mg/kg), the deaths result is recorded as “One mouse” and the “weight loss of the surviving mice” value was approximately 15%. In addition, the “concentrations with statistically significant reductions in NS1” value in data set [4] is not below 0.6 µM. In the data set with ZIKV PRVABC59 isolate, this compound yielded an average weight loss of approximately 20%. Further, in the data set with ZIKV PRVABC59 isolate (ip, 50 mg/kg), the “animals surviving the infection” value worked out at 50%. The compound further returned an NOAEL in “in vivo” of 100 mg/kg. Besides, in the data set with ZIKV PLCal_ZV [5] (read-out: EC50 against ZIKV PLCal_ZV), the pEC50 is 5.89 to 5.92. For the same compound, the EC90 in the data set with ZIKV PLCal_ZV [5] (read-out: EC90 against ZIKV PLCal_ZV) is approximately 1.5 µM.
Take `NC(=O)c1nc(F)c[nH]c1=O` [T-705]: the “protection in IFNAR-/- mice” value with Ebola is 100%.

The values above are taken from US10987371B2 (priority 2017, dated 2021).
